Measurements from US20120202819A1, “COMBINATION THERAPY USING A BETA 3 […] RECEPTOR AGONISTS AND AN […] AGENT” (Merck Sharp & Dohme Corporation, priority 2009, published 2012).
Like-named read-outs stand apart in the source and are kept apart here.

How the values were obtained:
[1] = test system: distention-induced rhythmic bladder contraction; assay: Distention-induced rhythmic bladder contraction in anesthetized female rats; type: in vivo, SD rats; details: iv, single dosing, urethane-anesthetized female rats
Description: • OXY, 0.01, 0.03, 0.1 mg/kg, iv; […].
Next, combination dosing regimens shown below in Table 7 were conducted to compose an isobologram. There were 9 groups in total. ID20 values of OXY and CL was calculated in each combination rate.

[2] = test system: EFS-induced isolated detrusor muscle contractions; assay: EFS-induced contraction of isolated rat detrusor muscle strips, with isobologram analysis; set-up: species or system Sprague-Dawley rats; details: single compound, rat bladder strips, EFS
Description: Male adult Sprague-Dawley rats were used. After euthanizing using CO2 gas, a whole bladder was removed. Longitudinal strips (about 6 mm×3 mm) of the extratrigonal portion of the detrusor muscle were prepared. […] The strips were tied at one end to the organ bath, and connected at the other end to an isometric transducer (AD Instruments) under a resting tension of 10 mN. The responses of the preparations were recorded at a sampling rate of 10 Hz by a multiple channel data acquisition system (PowerLab, AD Instruments), and measured with an analysis software (Chart, AD Instruments). After the equilibration period for at least 60 min, each tissue strip was challenged to electrical field stimulation (EFS) at 60 Hz; duration, 0.3 ms; 3 sec; 90 V to induce contractions. Upon obtaining stable contractions with EFS, compound solution (25 μL) was applied into organ bath in a cumulative manner. After 15 min of each compound treatment, EFS was applied.
Isobologram Analysis was used to evaluate the synergic effect of a combination therapy. Isobologram Analysis provides a visual assessment of the interaction of two different agents using independent statistical analysis. The statistical analysis can be accomplished from calculations of certain potency indices from single treatment of each compound and fixed-ratio combinations for the same effect.
Isobologram for some particular effect (e.g., 50% of the maximum) in which the dose of active agent A alone is A=20 and active agent B alone is B=100. The straight line connecting these intercept points (additivity line) is the locus of all dose pairs that, based on these potencies, should give the same effect, An actual dose pair such as point Q attains this effect with lesser quantities and is synergistic (or super-additive), while the dose pair denoted by point R means greater quantities are required and is therefore sub-additive.

muscarinic receptor M2 [3] = biological target: T1, muscarinic receptor M2 (Homo sapiens, UniProt P08172); details: Ohtake et al.; cited from earlier work
T1 sequence (P08172 1-466): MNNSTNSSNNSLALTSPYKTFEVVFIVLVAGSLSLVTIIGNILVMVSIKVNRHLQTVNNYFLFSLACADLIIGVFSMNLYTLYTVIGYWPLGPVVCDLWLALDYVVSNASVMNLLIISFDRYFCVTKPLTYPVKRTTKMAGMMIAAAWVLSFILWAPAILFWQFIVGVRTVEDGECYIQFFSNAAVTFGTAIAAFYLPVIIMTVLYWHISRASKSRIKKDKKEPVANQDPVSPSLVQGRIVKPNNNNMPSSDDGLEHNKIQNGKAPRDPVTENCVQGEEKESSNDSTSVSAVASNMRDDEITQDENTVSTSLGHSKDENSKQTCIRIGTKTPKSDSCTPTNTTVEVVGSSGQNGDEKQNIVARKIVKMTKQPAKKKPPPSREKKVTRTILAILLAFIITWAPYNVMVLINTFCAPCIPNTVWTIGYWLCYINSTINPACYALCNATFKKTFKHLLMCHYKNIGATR

muscarinic receptor M4 = biological target: T2, muscarinic receptor M4 (Homo sapiens, UniProt P08173); details: Ohtake et al.; cited from earlier work
T2 sequence (P08173 1-479): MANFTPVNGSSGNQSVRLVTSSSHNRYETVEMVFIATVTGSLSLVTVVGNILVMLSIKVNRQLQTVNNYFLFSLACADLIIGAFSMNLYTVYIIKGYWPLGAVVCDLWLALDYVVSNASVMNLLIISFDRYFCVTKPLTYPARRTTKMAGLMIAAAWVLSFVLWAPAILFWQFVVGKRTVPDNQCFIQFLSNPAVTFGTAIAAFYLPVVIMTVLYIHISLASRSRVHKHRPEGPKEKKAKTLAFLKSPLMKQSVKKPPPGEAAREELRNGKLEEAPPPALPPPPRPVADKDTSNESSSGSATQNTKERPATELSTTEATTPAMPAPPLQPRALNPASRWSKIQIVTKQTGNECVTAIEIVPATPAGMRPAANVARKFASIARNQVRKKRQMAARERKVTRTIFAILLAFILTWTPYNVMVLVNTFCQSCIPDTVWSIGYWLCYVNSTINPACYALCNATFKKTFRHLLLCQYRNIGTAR

muscarinic receptor M1 [4] = biological target: T3, muscarinic receptor M1 (Homo sapiens, UniProt P11229); details: read-out: Ki (nM) M1, cited from earlier work
T3 sequence (P11229 1-460): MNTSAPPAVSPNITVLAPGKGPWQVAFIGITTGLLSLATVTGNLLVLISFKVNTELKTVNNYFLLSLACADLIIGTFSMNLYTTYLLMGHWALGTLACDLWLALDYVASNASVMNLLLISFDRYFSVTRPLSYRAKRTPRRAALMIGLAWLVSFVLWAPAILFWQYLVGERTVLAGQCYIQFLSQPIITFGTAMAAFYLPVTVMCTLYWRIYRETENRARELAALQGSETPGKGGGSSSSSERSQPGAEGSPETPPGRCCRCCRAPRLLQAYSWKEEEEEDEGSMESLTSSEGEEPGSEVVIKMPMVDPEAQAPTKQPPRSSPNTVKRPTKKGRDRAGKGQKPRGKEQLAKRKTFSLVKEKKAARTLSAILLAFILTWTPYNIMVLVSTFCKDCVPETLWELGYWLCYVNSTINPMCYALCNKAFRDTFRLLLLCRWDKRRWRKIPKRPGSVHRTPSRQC

muscarinic receptor M3 [5] = biological target: T4, muscarinic receptor M3 (Homo sapiens, UniProt P20309); details: cited from earlier work
bladder capacity = assay: Bladder capacity (cystometry) in anesthetized rhesus monkeys; type: in vivo, rhesus monkeys (Macaca mulatta); details: mean of 4-6 animals
Text: Adult female rhesus monkeys (Macaca mulatta) weighed 5.3-6.2 kg (4-7 year-old) were used. The subjects were either paired or individually housed on a 12-h light/12-h dark cycle (lights on at 7:00 AM). Their diet consisted of 2050 Teklad (Harlan Laboratories, Indianapolis, Ind.) and fresh fruit or vegetable. Water was freely available. All animals were observed daily by a veterinary technician and caretakers for signs of ill health. Subjects were repeatedly used with >13-day resting period. Monkeys were anesthetized with an intramuscular injection of either Telazol (3-5 mg/kg) or ketamine (10-20 mg/kg) followed by intravenous constant rate infusion with ketamine (0.2-0,8 mg/kg/min) using a syringe pump (552222, Harvard Apparatus, Holliston, Mass.). Animals were placed in a supine position and a triple lumen balloon transurethral catheter (7.4 Fr, Cook Medical, Bloomington, Ind.) was inserted into the bladder and the balloon was inflated with 1 mL of water to secure the tip of catheter at the bladder base. The catheter was connected with an infusion pump (Gemini PC-2TX, ALARIS Medical Systems, San Diego, Calif.) for bladder filling and a pressure transducer for intravesical pressure monitoring. Intravesical pressure was continuously recorded using a multiple channel data acquisition system (Power lab, AD Instruments, Biopac systems, Colorado Springs, Colo.) at a sampling rate of 20 Hz. After confirming bladder emptiness by an ultrasonography (Logiq e vet, GE Medical Systems, Waukesha, Wis., FIG. 1A), saline was intravesically infused at 15 mL/min. When the steep rise in pressure indicative of the micturition reflex was observed, intravesical infusion was stopped and the bladder was manually emptied with a 60 ml syringe.
After two baseline cystometry readings, drug was intravenously administered three times using a rising dose paradigm with a cystometry performed 10 min after each dose. Bladder capacity was measured for each cystometry and % change from the baseline capacity was calculated. As used herein, the term “baseline capacity” or “baseline” means the average bladder capacity from two pre-dose measurements.
The reported results are mean values of % change from baseline in 4-6 animals.

muscarinic receptor M2 [6] = biological target: T1, muscarinic receptor M2; details: Hegde et al.; cited from earlier work
muscarinic receptor M1 [7] = biological target: T3, muscarinic receptor M1; details: Hegde et al.; cited from earlier work
muscarinic receptor M3 [8] = biological target: T4, muscarinic receptor M3; details: Hegde et al.; cited from earlier work

T4 sequence (P20309 whole entry): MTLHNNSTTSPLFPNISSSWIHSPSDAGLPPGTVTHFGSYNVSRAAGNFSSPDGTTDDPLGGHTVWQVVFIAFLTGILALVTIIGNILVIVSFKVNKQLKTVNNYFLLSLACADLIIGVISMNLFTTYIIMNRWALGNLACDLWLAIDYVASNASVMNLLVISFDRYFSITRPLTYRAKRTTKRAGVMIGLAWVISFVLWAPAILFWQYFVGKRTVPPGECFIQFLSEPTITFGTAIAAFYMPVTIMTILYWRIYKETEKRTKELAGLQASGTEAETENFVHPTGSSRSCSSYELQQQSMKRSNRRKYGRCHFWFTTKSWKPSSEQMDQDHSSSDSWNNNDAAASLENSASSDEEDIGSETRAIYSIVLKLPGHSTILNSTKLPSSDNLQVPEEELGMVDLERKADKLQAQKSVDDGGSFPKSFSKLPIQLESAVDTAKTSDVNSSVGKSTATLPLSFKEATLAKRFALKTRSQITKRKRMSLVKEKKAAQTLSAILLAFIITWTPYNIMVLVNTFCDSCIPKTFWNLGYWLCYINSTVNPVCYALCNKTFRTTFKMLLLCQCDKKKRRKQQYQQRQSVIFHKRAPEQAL

Row | Structure (SMILES) | ID20 (dose decreasing amplitude by 20%) [1] [MPK] | IC25 (concentration which induced 25% inhibition of detrusor contraction) [2] [nM] | Ki (muscarinic receptor M2 [3]) [nM] | Ki (muscarinic receptor M4) [nM] | Ki (muscarinic receptor M3 [5]; Ohtake et al.) [nM] | Ki (muscarinic receptor M1 [4]) [nM] | also measured
1 | C[C@H](Cc1ccc2c(c1)OC(C(=O)[O-])(C(=O)[O-])O2)NC[C@H](O)c1cccc(Cl)c1.[Na+].[Na+] [CL316243, disodium (R,R)-5-(2-((2-(3-ehlorophenyl)-2-hydroxyethyl)-amino)propyl)-1,3-benzodioxole-2,3-dicarboxylate] | 0.024 | 2.86 | – | – | – | – | –
2 | CCN(CC)CC#CCOC(=O)C(O)(c1ccccc1)C1CCCCC1 (centres unmarked) [Oxybutynin, 4-diethylaminobut-2-ynyl2-cyclohexyl-2-hydroxy-2-phenyl-ethanoate] | 0.057 | – | – | – | – | – | –
3 | CCCOC(C(=O)OC1CCN(C)CC1)(c1ccccc1)c1ccccc1 [Propiverine] | – | – | 1400 ± 220 | 900 ± 200 | 350 ± 53 | – | Ki (muscarinic receptor M1 [4]; Ohtake et al.): 490 ± 110 nM; M2/M3 ratio (muscarinic receptor M3 [5]; Ohtake et al., ratio of Ki M2 to Ki M3): 4
4 | O=C(O[C@H]1CN2CCC1CC2)N1CCc2ccccc2[C@@H]1c1ccccc1 [Solifenacin] | – | – | 170 ± 37 | 110 ± 45 | 12 ± 4.4 | 26 ± 2 | M2/M3 ratio (muscarinic receptor M3 [5]): 14
5 | Cc1ccc(O)c([C@@H](CCN(C(C)C)C(C)C)c2ccccc2)c1 [Tolterodine, 2-[(1S)-3-(diisopropylamino)-1-phenylpropyl]-4-methylphenol] | – | 4.71 | – | 6.6 ± 1.7 | – | 2.7 ± 0.23 | Bladder capacity, % change from baseline (bladder capacity; mono-therapy 0.01 mg/kg iv, listed as TOL): 8.6%; Bladder capacity, % change from baseline (bladder capacity; mono-therapy 0.03 mg/kg iv, listed as TOL): 16.8%; Bladder capacity, % change from baseline (bladder capacity; mono-therapy 0.1 mg/kg iv): 40.3%
6 | O=C(O[C@H]1C[C@H]2CC[C@@H](C1)[N+]21CCCC1)C(O)(c1ccccc1)c1ccccc1 [Trospium] | – | – | – | – | – | – | Ki (muscarinic receptor M2 [6]): 0.65 nM; Ki (muscarinic receptor M1 [7]): 0.75 nM; Ki (muscarinic receptor M3 [8]): 0.5 nM; M2/M3 ratio (muscarinic receptor M3 [8]): 1
